Laboratory results: patent US10940139B2, “Compounds that interact with the Ras superfamily for the treatment of cancers, inflammatory diseases, rasopathies, and fibrotic disease” (Shy Therapeutics LLC, priority 2017, dated 2021)

Experiments:
Assay in all cases: Ras GTP binding domain inhibition assay (labeled GTP)
[1] = molecular target: KRas G12C/Q61H double mutant (Homo sapiens (Human), UniProt P01116, G12C/Q61H); settings: 20 μM compound; read-out: % Inhibition at 20 μM KRas G12C Q61H
Procedure, shortened: (§1)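 Labelled-GTP binding: plate-captured His-KRas protein was pre-exposed to compound for 3 h at room temperature (single 20 μM point or dilution series, 1% DMSO, Tris pH 7.5/MgCl2/DTT buffer). Cy3- or Cy5-GTP was then added for 45 min. Washed wells were read for retained fluorescence to give inhibition or IC50.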

KRas wild type = KRas wild type (Homo sapiens (Human), UniProt P01116); settings: 20 μM compound; read-out: % Inhibition at 20 μM KRas wild type
Procedure, shortened: as §1

[2] = molecular target: KRas G12D/Q61H double mutant (Homo sapiens (Human), UniProt P01116, G12D/Q61H); settings: for inhibition at 20 µM: 20 μM compound, read-out: % Inhibition at 20 μM KRas G12D Q61H; for IC50: serial dilution, read-out: KRas G12D Q61H (classes E-H, IC50)
Procedure, shortened: as §1

KRas Q61H mutant = KRas Q61H mutant (Homo sapiens (Human), UniProt P01116, Q61H); settings: 20 μM compound; read-out: % Inhibition at 20 μM KRas Q61H
Procedure, shortened: as §1

KRas G12C mutant = KRas G12C mutant (Homo sapiens (Human), UniProt P01116, G12C); settings: 20 μM compound; read-out: % Inhibition at 20 μM KRas G12C
Procedure, shortened: as §1

KRas G12D mutant protein = KRas G12D mutant protein (Homo sapiens (Human), UniProt P01116, G12D); settings: 20 μM compound; read-out: % Inhibition at 20 μM KRas G12D
Sequence of KRas G12D mutant protein (P01116-2 other isoform, or with tags, fused parts or gaps G12D): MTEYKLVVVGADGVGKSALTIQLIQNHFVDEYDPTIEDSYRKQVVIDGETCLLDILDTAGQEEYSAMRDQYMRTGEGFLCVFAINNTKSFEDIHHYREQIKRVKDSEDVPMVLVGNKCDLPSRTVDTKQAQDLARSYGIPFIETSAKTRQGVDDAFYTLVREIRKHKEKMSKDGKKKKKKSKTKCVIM

Sequence of KRas G12C/Q61H double mutant (P01116-2 other isoform, or with tags, fused parts or gaps G12C/Q61H): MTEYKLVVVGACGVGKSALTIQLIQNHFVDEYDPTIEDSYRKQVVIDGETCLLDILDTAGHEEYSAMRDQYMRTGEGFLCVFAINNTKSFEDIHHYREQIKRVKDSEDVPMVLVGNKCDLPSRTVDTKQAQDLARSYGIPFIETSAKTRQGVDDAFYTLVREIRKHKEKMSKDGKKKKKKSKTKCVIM
Sequence of KRas wild type (P01116-2 other isoform, or with tags, fused parts or gaps): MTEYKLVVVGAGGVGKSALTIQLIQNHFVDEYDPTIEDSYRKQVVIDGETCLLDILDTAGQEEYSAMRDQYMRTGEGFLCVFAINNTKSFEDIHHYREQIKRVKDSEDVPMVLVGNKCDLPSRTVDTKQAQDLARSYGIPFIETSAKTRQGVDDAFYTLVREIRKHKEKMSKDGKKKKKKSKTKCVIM
Sequence of KRas G12C mutant (P01116-2 other isoform, or with tags, fused parts or gaps G12C): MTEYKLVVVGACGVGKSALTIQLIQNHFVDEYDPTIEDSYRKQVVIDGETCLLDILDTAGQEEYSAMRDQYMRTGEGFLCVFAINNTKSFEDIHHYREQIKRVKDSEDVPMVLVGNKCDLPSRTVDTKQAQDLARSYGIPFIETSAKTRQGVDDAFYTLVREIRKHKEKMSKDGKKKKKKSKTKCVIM
Sequence of KRas Q61H mutant (P01116-2 other isoform, or with tags, fused parts or gaps Q61H): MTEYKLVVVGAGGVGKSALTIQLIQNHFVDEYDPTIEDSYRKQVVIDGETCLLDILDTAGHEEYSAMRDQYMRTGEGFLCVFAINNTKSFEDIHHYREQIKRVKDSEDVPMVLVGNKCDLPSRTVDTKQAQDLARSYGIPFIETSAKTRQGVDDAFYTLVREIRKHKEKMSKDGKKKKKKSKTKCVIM
Sequence of KRas G12D/Q61H double mutant (P01116-2 other isoform, or with tags, fused parts or gaps G12D/Q61H): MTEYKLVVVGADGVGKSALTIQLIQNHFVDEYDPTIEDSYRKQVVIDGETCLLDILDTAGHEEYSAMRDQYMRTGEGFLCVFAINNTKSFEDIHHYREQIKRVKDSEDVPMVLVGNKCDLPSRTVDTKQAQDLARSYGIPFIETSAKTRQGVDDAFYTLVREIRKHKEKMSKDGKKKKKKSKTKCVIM

SMILES	inhibition at 20 µM [1] [%]	inhibition at 20 µM (KRas wild type) [%]	inhibition at 20 µM [2] [%]	inhibition at 20 µM (KRas Q61H mutant) [%]	inhibition at 20 µM (KRas G12C mutant) [%]	inhibition at 20 µM (KRas G12D mutant protein) [%]	IC50 [2] [µM]
O=S1(=O)CCN(Cc2cccc(-c3csc4c(O)nc(-c5ccccn5)nc34)c2)CC1 [drawing 2864]	51 to 75	51 to 75	51 to 75	51 to 75	25 to 50	51 to 75	
Oc1nc(-c2ccccn2)nc2c(-c3ccccc3F)csc12 [drawing 2868]	51 to 75	51 to 75	51 to 75	51 to 75	25 to 50	51 to 75	
COc1ccccc1-c1csc2c(O)nc(-c3ccccn3)nc12 [drawing 2870]	25 to 50	25 to 50	25 to 50	25 to 50	25 to 50	51 to 75	
Oc1nc(-c2ccccn2)nc2c(-c3ccc(F)cc3F)csc12 [drawing 2871]	51 to 75	25 to 50	51 to 75	51 to 75	25 to 50	51 to 75	
COc1cccc(-c2csc3c(O)nc(-c4ccccn4)nc23)c1 [drawing 2872]	1 to 25	51 to 75	25 to 50	1 to 25	25 to 50	76 to 100	
Oc1nc(-c2ccccn2)nc2c(-c3cccc(C(F)(F)F)c3)csc12 [drawing 2873]	25 to 50	25 to 50	25 to 50	51 to 75	25 to 50	51 to 75	
COc1ccc(F)cc1-c1csc2c(O)nc(-c3ccccn3)nc12 [drawing 2874]	25 to 50	25 to 50	51 to 75	25 to 50	25 to 50	51 to 75	
Oc1nc(-c2ccccn2)nc2c(-c3ccsc3)csc12 [drawing 2875]	25 to 50	1 to 25	25 to 50	25 to 50	51 to 75	51 to 75	
Oc1nc(-c2ccccn2)nc2c(-c3ccc(OC(F)F)cc3F)csc12 [drawing 2876]	51 to 75	51 to 75	51 to 75	51 to 75	25 to 50	51 to 75	
CC(C)COc1ccc(-c2csc3c(O)nc(-c4ccccn4)nc23)cn1 [drawing 2877]	51 to 75	51 to 75	51 to 75	51 to 75	51 to 75	51 to 75	
Oc1nc(-c2ccccn2)nc2c(-c3ccc4c(c3)OCO4)csc12 [drawing 2879]	51 to 75	51 to 75	51 to 75	51 to 75	25 to 50	51 to 75	
CC(C)(O)c1ccc(-c2csc3c(O)nc(-c4ccccn4)nc23)c(F)c1 [drawing 2880]	51 to 75	51 to 75	51 to 75	51 to 75	51 to 75	51 to 75	
COc1ccc(-c2csc3c(O)nc(-c4ccccn4)nc23)c(C)c1 [drawing 2881]	51 to 75	25 to 50	51 to 75	51 to 75	51 to 75	51 to 75	
Oc1nc(-c2ccccn2)nc2c(-c3ccccc3C(F)F)csc12 [drawing 2883]	51 to 75	25 to 50	51 to 75	51 to 75	25 to 50	51 to 75	
COc1cc(-c2csc3c(O)nc(-c4ccccn4)nc23)cnc1C(F)(F)F [drawing 2884]	51 to 75	51 to 75	51 to 75	51 to 75	51 to 75	51 to 75	
CNC(=O)c1ccc(-c2csc3c(O)nc(-c4ccccn4)nc23)cc1C [drawing 2885]	25 to 50	25 to 50	25 to 50	25 to 50	25 to 50	25 to 50	
OCC1(c2ccc(-c3csc4c(O)nc(-c5ccccn5)nc34)cc2)CC1 [drawing 2886]	51 to 75	76 to 100	51 to 75	51 to 75	25 to 50	76 to 100	
Cc1cnccc1-c1csc2c(O)nc(-c3ccccn3)nc12 [drawing 2888]	51 to 75	76 to 100	51 to 75	51 to 75	25 to 50	51 to 75	
O=C(CCn1ccnc1)Nc1nc(-c2ccccn2)nc2sccc12 [drawing 2889]	51 to 75	51 to 75	51 to 75	76 to 100	25 to 50	76 to 100	
O=C(CCc1nn[nH]n1)Nc1nc(-c2ccccn2)nc2sccc12 [drawing 2890]	51 to 75	51 to 75	51 to 75	51 to 75	25 to 50	51 to 75	
O=C(CCc1cncnc1)Nc1nc(-c2ccccn2)nc2sccc12 [drawing 2891]	76 to 100	51 to 75	51 to 75	51 to 75	25 to 50	51 to 75	
Oc1nc(-c2ccccn2)nc2c(-c3ccccn3)csc12 [drawing 2896]	51 to 75	51 to 75	1 to 25	25 to 50	25 to 50	25 to 50	
CN1CCN(c2nc(-c3ccccn3)nc3scc(C(=O)NCCc4cnc(O)nc4)c23)CC1 [drawing 2899]	51 to 75	1 to 25	25 to 50	51 to 75	1 to 25	51 to 75	> 30
Oc1nc(-c2ccccn2)nc2c(-c3cc(F)cc(F)c3)csc12 [drawing 2900]	51 to 75	25 to 50	51 to 75	51 to 75	51 to 75	51 to 75	> 30
CN(C)Cc1ccc(F)c(-c2csc3c(O)nc(-c4ccccn4)nc23)c1 [drawing 2901]	51 to 75	51 to 75	25 to 50	51 to 75	25 to 50	51 to 75	11 to 30
Oc1nc(-c2ccccn2)nc2c(-c3ccc4c(c3)CCCO4)csc12 [drawing 2902]	25 to 50	25 to 50	25 to 50	51 to 75	25 to 50	51 to 75	
